Assay results reported in paper PMC12292835, “Amylin Receptor 1 Mutagenesis Revealed a Potential Role of Calcitonin Serine 29 in Receptor Interaction” (Biomedicines, 2025).
Where no end group is shown, it is not given here.

What was measured:
[1] = tested on: calcitonin receptor N135A; conditions: cited from earlier work
Method: (§1) Several receptor–ligand interaction studies introducing mutagenesis to calcitonin and amylin receptors are also available. Among these previous reports, an extensive receptor–ligand interaction study was reported where alanine-scanning mutagenesis was applied to the upper segment of transmembrane helix 1 (TM1) of the calcitonin receptor and its extension into the receptor ECD [31]. Although the study focused on TM1, some residues of calcitonin receptor ECD were mutated and were tested for peptide ligand interaction. When the N135 residue was mutated to alanine, the ...

[2] = tested on: pancreatic β-cells; conditions: in words; cited from earlier work
Text: (§2) Due to the inherent nature of the calcitonin receptor as the main component of the functional amylin receptor, a calcitonin peptide is used as an agonist for amylin receptors. […] Accordingly, salmon calcitonin is well-characterized as a dual agonist for calcitonin and amylin receptors and is commonly used for research targeting amylin receptors.

[3] = cited from earlier work
Text: as §2

[4] = tested on: calcitonin receptor and amylin receptor 1 with N124A; conditions: cAMP production, in words; cited from earlier work
Text: The N124 residue of the calcitonin receptor appeared dispensable for amylin receptor 1 activation mediated by calcitonin or amylin. The affinity decreases for receptor ECD by 8-fold and more may be insufficient to produce the potency decrease in the activation of the full-length calcitonin and amylin rec ...

[5] = tested on: amylin receptor 1 with D101A; conditions: cAMP production, amylin receptor 1 activation; cited from earlier work
Method: (§3) Gingell et al. addressed the receptor interaction with human calcitonin and rat amylin by introducing mutations to the peptide-binding pocket of the calcitonin receptor and amylin receptor 1 ECDs. The peptide potency for calcitonin receptor and amylin receptor 1 activation was investigated by measuring cAMP production. Multiple residues located in the peptide-binding pocket were tested for peptide-mediated receptor activation. They reported the mutational effects of D101A and N124A that were used in the current study. Consistent with our binding results, the D101A mutation markedly decr ...

[6] = tested on: calcitonin receptor D101A; conditions: cAMP production, calcitonin receptor activation, cited from earlier work
Method: as §3

[7] = tested on: human calcitonin and amylin receptors; conditions: in words; cited from earlier work
Text: as §2

[8] = tested on: amylin receptors; conditions: mutated human amylin, cell-based system; cited from earlier work
Text: Receptor–ligand interaction studies with alanine-scanning mutagenesis have been reported for amylin receptors. Lee et al. first introduced alanine-scanning mutagenesis to calcitonin and AC413 peptides and examined the role of each amino acid in the interaction with amylin receptor 1 ECD [20]. They reported critical amino acids of peptide ligands for amylin receptor 1 ECD binding. Their results were supported by the following structural studies with the calcitonin receptor ECD and salmon calcitonin fragments. Recently, Lee S introduced alanine-scanning mutagenesis to a rat amylin ...

[9] = tested on: calcitonin receptor N135A, phosphorylation of extracellular signal-regulated kinase (ERK); conditions: cited from earlier work
Method: as §1

[10] = tested on: calcitonin receptor N135A, cAMP production; conditions: cited from earlier work
Method: as §1

[11] = biological target: T1, wild-type amylin receptor 1 ECD (Homo sapiens, UniProt O60894+P30988); assay: Competition binding assay with non-labeled sCT(22–32), WT; conditions: competition with 10 nM FITC-sCT(22–32), receptor ECD 81 nM, 1 hour, anisotropy
T1 construct: pHLsec/hRAMP1.24–111-(GSA)3-hCTR.34–141-H6 (H-pSL005); H6 (hexahistidine) (C); made in house; host or cells: HEK293 (transient transfection, secreted, N-glycosylated)
T1 sequence (O60894 24-111): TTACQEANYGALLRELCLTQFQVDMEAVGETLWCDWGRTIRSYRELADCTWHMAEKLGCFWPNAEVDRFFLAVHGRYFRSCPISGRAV
T1 sequence (P30988 34-141): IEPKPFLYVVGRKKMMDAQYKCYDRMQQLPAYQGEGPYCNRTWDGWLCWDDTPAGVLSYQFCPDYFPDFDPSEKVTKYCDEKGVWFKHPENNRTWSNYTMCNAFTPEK
Method: (§4) The overall procedure of the FP binding assay with a saturation binding format was previously described. A total of 10 nM FITC-labeled sCT(22–32) and 10 nM FITC-labeled AC413(6–25) with Y25P mutation were used for the receptor–ligand binding assay. For the saturation binding format, the non-linear regression curves were generated by using user-defined equations that were previously described for affinity calculation. FITC-labeled peptide probes were incubated for 1 h at room temperature with the purified receptor protein prior to fluorescence signal measurement. A BioTek Synergy H1 microplate reader (Agilent, Santa Clara, CA, USA) was used to evaluate fluorescence polarization/anisotropy. […] When total fluorescence intensity of the FITC-labeled probes was altered with receptor binding by more than 10% from the starting fluorescence value, the anisotropy was adjusted to reflect the fluorescence change as previously described. […] PRISM 5.0 was fully functional, with the user-defined equations used predicting KD values from fluorescence polarization/anisotropy. […]
(§5) The mixture of the competitive peptide with varying concentrations, 10 nM FITC -sCT(22 –32), and the receptor ECD protein with the concentration described earlier was incubated for 1 hour. The anisotropy signal was measured by using a BioTek Synergy H1 microplate reader (Agilent, Santa Clara, CA, USA). […]

[12] = biological target: T2, amylin receptor 1 ECD with the E123D mutation (Homo sapiens, UniProt O60894+P30988, E123D); assay: Competition binding assay with non-labeled sCT(22–32), E123D; conditions: competition with 10 nM FITC-sCT(22–32), receptor ECD E123D 53 nM, 1 hour, anisotropy
T2 construct: pHLsec/hRAMP1.24–111-(GSA)3-hCTR.34–141.E123D-H6 (D-pJJ001); H6 (hexahistidine) (C); made in house; host or cells: HEK293 (transient transfection, secreted, N-glycosylated)
T2 sequence (O60894 24-111): as the sequence (O60894 24-111) above
T2 sequence (P30988 34-141 E123D): as the sequence (P30988 34-141) above, with E90D counted along it
Method: as §4, §5

[13] = biological target: T3, amylin receptor 1 ECD with the E123A mutation (Homo sapiens, UniProt O60894+P30988, E123A); assay: Competition binding assay with non-labeled sCT(22–32), E123A; conditions: competition with 10 nM FITC-sCT(22–32), receptor ECD E123A 365 nM, 1 hour, anisotropy
T3 construct: pHLsec/hRAMP1.24–111-(GSA)3-hCTR.34–141.E123A-H6 (D-pJJ004); H6 (hexahistidine) (C); made in house; host or cells: HEK293 (transient transfection, secreted, N-glycosylated)
T3 sequence (O60894 24-111): as the sequence (O60894 24-111) above
T3 sequence (P30988 34-141 E123A): as the sequence (P30988 34-141) above, with E90A counted along it
Method: as §4, §5

Substance: porcine calcitonin: peptide hormone (CSNLSTCVLSAYWRNLNNFHRFSGMGFGPETP; ends and bridges not checked; cysteine pairing not given here; UniProt P01259 1-32, looked up)
- effect of N135A on binding [1]: abolished the binding

Substance: human amylin: peptide hormone secreted from pancreatic β-cells, 37 amino acids (KCNTATCATQRLANFLVHSSNNFGAILSSTNVGSNTY; not fully specified (C-terminus, bridges); cysteine pairing not given here; UniProt P10997 34-70, looked up)
- effect of aggregates on pancreatic β-cells [2]: harm pancreatic β-cells
- aggregation ([3]; human amylin): reported to form aggregates

Substance: rat amylin: rodent (rat/mouse) amylin
- effect of N124A on potency [4]: did not significantly change the potency
- decrease of potency [5]: 68 fold
- effect of D101A on potency ([6]; in words): not significantly altered
- aggregation propensity ([3]; rodent (rat/mouse) amylin versus human amylin): less propensity for forming aggregates than human amylin

Substance: salmon calcitonin
- binding and receptor activation potency [7]: strong receptor activation potency

Substance: Q10A: human amylin with mutation Q10A (KCNTATCATARLANFLVHSSNNFGAILSSTNVGSNTY; ends and bridges not checked; cysteine pairing not given here; UniProt P10997 34-70, looked up, variant Q10A)
- amylin receptor activation potency [8]: significantly increased the amylin receptor activation potency

Substance: calcitonin
- decrease of functional affinity (pKA) [9]: less than 10 fold
- decrease of functional affinity (pKA) [10]: less than 10 fold

Substance: A5S: human amylin with mutation A5S (KCNTSTCATQRLANFLVHSSNNFGAILSSTNVGSNTY; ends and bridges not checked; cysteine pairing not given here; UniProt P10997 34-70, looked up, variant A5S)
- amylin receptor activation potency [8]: significantly increased the amylin receptor activation potency

Substance: human calcitonin: peptide hormone
- effect of N135A on binding [1]: abolished the binding
- effect of N124A on potency [4]: did not significantly change the potency
- decrease of potency ([6]; D101A): 17 fold

Substance: V17A: human amylin with mutation V17A (KCNTATCATQRLANFLAHSSNNFGAILSSTNVGSNTY; ends and bridges not checked; cysteine pairing not given here; UniProt P10997 34-70, looked up, variant V17A)
- amylin receptor activation potency [8]: significantly increased the amylin receptor activation potency

Substance: YPRTNTGSGTP-NH2 [non-labeled sCT(22–32)]
- Ki [11]: 891 nM
- Ki [12]: 1230 nM
- Ki [13]: 2510 nM
